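Test compounds were applied to cells in 96-well plates for 48 hours at 5 doses. Here, GI50 denotes the concentration required for 50% inhibition of growth. The concentration for full growth arrest is given as TGI.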
Key:
Test in all cases: DTP human tumour cell line panel, 48 h
SN12C renal = tested on: SN12C renal
SF-268 CNS = tested on: SF-268 CNS
SF-295 CNS = tested on: SF-295 CNS
MDA-MB-231 breast = tested on: MDA-MB-231 breast
T-47D breast = tested on: T-47D breast
NCI-H522 lung = tested on: NCI-H522 lung
OVCAR-3 ovarian = tested on: OVCAR-3 ovarian
EKVX NSCLC = tested on: EKVX NSCLC
DU-145 prostate = tested on: DU-145 prostate
SW-620 colon = tested on: SW-620 colon
OVCAR-8 ovarian = tested on: OVCAR-8 ovarian
IGROV1 ovarian = tested on: IGROV1 ovarian
SK-MEL-2 melanoma = tested on: SK-MEL-2 melanoma
A549 NSCLC = tested on: A549 NSCLC
A498 renal = tested on: A498 renal
NCI/ADR-RES ovarian = tested on: NCI/ADR-RES ovarian
HL-60(TB) leukemia = tested on: HL-60(TB) leukemia
UO-31 renal = tested on: UO-31 renal
TK-10 renal = tested on: TK-10 renal
CCRF-CEM leukemia = tested on: CCRF-CEM leukemia
COLO 205 colon = tested on: COLO 205 colon
HOP-62 NSCLC = tested on: HOP-62 NSCLC
786-0 renal = tested on: 786-0 renal
U251 CNS = tested on: U251 CNS
M14 melanoma = tested on: M14 melanoma
MOLT-4 leukemia = tested on: MOLT-4 leukemia
KM12 colon = tested on: KM12 colon
HCT-116 colon = tested on: HCT-116 colon
HCT-15 colon = tested on: HCT-15 colon
UACC-62 melanoma = tested on: UACC-62 melanoma

SMILES: CCOC(=O)C(Cc1ccccc1)N1C(=O)/C(=C/N2N=C(c3ccc(OC)cc3)CC2c2ccc3ccccc3c2)SC1=S (centres undefined)
- TGI (SN12C renal): 13.2 µM
- GI50 (SF-268 CNS): 3.47 µM
- TGI (SF-268 CNS): 22.9 µM
- GI50 (SF-295 CNS): 2.11 µM
- TGI (SF-295 CNS): 7.21 µM
- GI50 (MDA-MB-231 breast): 4.29 µM
- TGI (MDA-MB-231 breast): 17.9 µM
- GI50 (T-47D breast): 3.06 µM
- TGI (T-47D breast): 34.1 µM
- GI50 (NCI-H522 lung): 2.49 µM
- TGI (NCI-H522 lung): 8.88 µM
- GI50 (OVCAR-3 ovarian): 3.21 µM
- TGI (OVCAR-3 ovarian): 11.7 µM
- GI50 (EKVX NSCLC): 2.46 µM
- TGI (EKVX NSCLC): 11.5 µM
- GI50 (DU-145 prostate): 11.2 µM
- TGI (DU-145 prostate): 36.5 µM
- GI50 (SW-620 colon): 2.57 µM
- TGI (SW-620 colon): 17 µM
- GI50 (OVCAR-8 ovarian): 3.57 µM
- TGI (OVCAR-8 ovarian): 15.3 µM
- GI50 (IGROV1 ovarian): 4.09 µM
- TGI (IGROV1 ovarian): 15.6 µM
- GI50 (SK-MEL-2 melanoma): 2.18 µM
- TGI (SK-MEL-2 melanoma): 5.03 µM
- GI50 (A549 NSCLC): 7.08 µM
- TGI (A549 NSCLC): 27.3 µM
- GI50 (A498 renal): 5.08 µM
- TGI (A498 renal): 19.5 µM
- GI50 (NCI/ADR-RES ovarian): 14.1 µM
- TGI (NCI/ADR-RES ovarian): 91.3 µM
- GI50 (HL-60(TB) leukemia): 3.54 µM
- TGI (HL-60(TB) leukemia): 16.5 µM
- GI50 (UO-31 renal): 4.86 µM
- TGI (UO-31 renal): 18.5 µM
- GI50 (TK-10 renal): 4.97 µM
- TGI (TK-10 renal): 19 µM
- GI50 (CCRF-CEM leukemia): 3.27 µM
- TGI (CCRF-CEM leukemia): > 100 µM
- GI50 (COLO 205 colon): 3.09 µM
- TGI (COLO 205 colon): 14.7 µM
- GI50 (HOP-62 NSCLC): 3.82 µM
- TGI (HOP-62 NSCLC): 19.6 µM
- GI50 (786-0 renal): 5.31 µM
- TGI (786-0 renal): 27.9 µM
- GI50 (U251 CNS): 3.26 µM
- TGI (U251 CNS): 20.4 µM
- GI50 (M14 melanoma): 4.49 µM
- TGI (M14 melanoma): 41.7 µM
- GI50 (MOLT-4 leukemia): 3.45 µM
- TGI (MOLT-4 leukemia): > 100 µM
- GI50 (KM12 colon): 3.54 µM
- TGI (KM12 colon): 13.3 µM
- GI50 (HCT-116 colon): 3.3 µM
- TGI (HCT-116 colon): 17.4 µM
- GI50 (HCT-15 colon): 2.6 µM
- TGI (HCT-15 colon): 10.4 µM
- GI50 (UACC-62 melanoma): 2.33 µM
- TGI (UACC-62 melanoma): 6.97 µM

Reference: PubChem BioAssay (NCI)
